The record followed here is PubChem BioAssay (NCI).

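Five concentrations, 48 hours, 96-well plates. GI50 is the concentration that inhibits growth by half. TGI marks complete inhibition of growth.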

Among the test systems are CCRF-CEM leukemia; SW-620 colon; HOP-62 NSCLC; NCI-H522 lung; COLO 205 colon; LOX IMVI melanoma; HL-60(TB) leukemia; NCI-H460 lung; SR leukemia; SF-268 CNS; A498 renal; MOLT-4 leukemia; SK-OV-3 ovarian; HOP-92 NSCLC; RXF 393 renal.
Holding throughout (test): NCI-60 cell line screen, 48 h

As for `COC(=O)c1ccc(OCc2ccc3nc(OC)c(OC)nc3c2)cc1`, the TGI with CCRF-CEM leukemia, in the assay on SW-620 colon, in the assay with HOP-62 NSCLC, in the assay on NCI-H522 lung, in the assay with COLO 205 colon and in the assay on LOX IMVI melanoma was > 100 µM throughout. The TGI with HL-60(TB) leukemia, with NCI-H460 lung, with SR leukemia and with SF-268 CNS was > 100 µM in each case.

On to `O=C1CCCCC1CN1CCCC1` (centres undefined), for which the TGI with CCRF-CEM leukemia was > 100 µM; in the assay on SW-620 colon, > 100 µM; in the assay on A498 renal, > 100 µM; in the assay on HOP-62 NSCLC it was > 100 µM; with NCI-H522 lung it was 0.521 µM; in the assay with MOLT-4 leukemia it was > 100 µM. Also, the TGI in the assay with COLO 205 colon, in the assay on LOX IMVI melanoma, in the assay on SK-OV-3 ovarian, in the assay on NCI-H460 lung, in the assay on SR leukemia and in the assay with SF-268 CNS was > 100 µM each time.

Consider `O=S1(=O)OCCOS(=O)(=O)C1I`, for which the TGI in the assay with CCRF-CEM leukemia, with SW-620 colon, in the assay with A498 renal, with HOP-62 NSCLC, with HOP-92 NSCLC and with NCI-H522 lung was > 100 µM in each case. Further, the TGI in the assay on MOLT-4 leukemia, in the assay on COLO 205 colon, in the assay with SK-OV-3 ovarian, in the assay with HL-60(TB) leukemia, in the assay on SR leukemia and with SF-268 CNS was > 100 µM in each case.

As to `CC1(C)COC(C23C4C5C2C2C3C4C52I)=N1` (centres undefined), the TGI in the assay with CCRF-CEM leukemia, in the assay on SW-620 colon, in the assay on A498 renal, in the assay on HOP-62 NSCLC, in the assay on HOP-92 NSCLC and in the assay on MOLT-4 leukemia was > 100 µM throughout. The TGI in the assay on COLO 205 colon, in the assay with SK-OV-3 ovarian, in the assay on NCI-H460 lung, in the assay with RXF 393 renal and with SF-268 CNS was > 100 µM throughout.

Turning to `COc1ccc(N2C(=O)C3c4[nH]c5ccccc5c4C4CCCCCCCCCCC4C3C2=O)cc1` (centres undefined), the TGI was > 43.7 µM in the assay with CCRF-CEM leukemia; 18.7 µM in the assay on SW-620 colon; 25.5 µM in the assay with A498 renal; > 55 µM in the assay with HOP-62 NSCLC; 45.2 µM in the assay on HOP-92 NSCLC; > 49.1 µM with NCI-H522 lung. Further, the TGI with MOLT-4 leukemia was 37.4 µM; in the assay on COLO 205 colon, > 40.5 µM; in the assay on LOX IMVI melanoma, > 46.6 µM; with SK-OV-3 ovarian it was > 57.5 µM; with HL-60(TB) leukemia it was 68.2 µM; in the assay with NCI-H460 lung, 19.5 µM. The TGI is > 20.3 µM with SR leukemia and > 30.5 µM with SF-268 CNS.

As to `COc1c(Cl)c2c(c(OC)c1OC)-c1ccc(OC)c(=O)c(Cl)c1C(NC(C)=O)CC2` (centres undefined), the TGI with CCRF-CEM leukemia is > 33.8 µM; with SW-620 colon, > 100 µM; in the assay with A498 renal it was 0.413 µM; in the assay with HOP-62 NSCLC it was > 27.2 µM; with HOP-92 NSCLC, 13.8 µM; in the assay on NCI-H522 lung, 0.468 µM. In addition, the TGI is > 100 µM in the assay on MOLT-4 leukemia; 0.647 µM in the assay on COLO 205 colon; 5.87 µM with LOX IMVI melanoma; 2.77 µM with HL-60(TB) leukemia; 1.34 µM in the assay on NCI-H460 lung; > 100 µM in the assay on SR leukemia. This compound registered a TGI in the assay with SF-268 CNS of 3.57 µM.

As to `COC(=O)CCCN(C)c1n[nH]c(N)n1`, the TGI in the assay with CCRF-CEM leukemia, with SW-620 colon, in the assay with HOP-62 NSCLC, in the assay with MOLT-4 leukemia, in the assay with COLO 205 colon and in the assay with LOX IMVI melanoma was > 100 µM each time. For the same compound, the TGI in the assay on SK-OV-3 ovarian, in the assay on HL-60(TB) leukemia, in the assay with NCI-H460 lung, in the assay on SR leukemia, with RXF 393 renal and in the assay on SF-268 CNS was > 100 µM throughout.

In the case of `COc1cccc(-c2cc(=O)c3cc(OC)c(OC)cc3[nH]2)c1`, the TGI with CCRF-CEM leukemia was > 100 µM; with SW-620 colon, > 100 µM; in the assay with HOP-62 NSCLC it was > 100 µM; in the assay with NCI-H522 lung it was 42.4 µM; in the assay on MOLT-4 leukemia, > 100 µM; in the assay on COLO 205 colon, > 100 µM. Moreover, the TGI with LOX IMVI melanoma, in the assay with SK-OV-3 ovarian, in the assay with HL-60(TB) leukemia, in the assay with NCI-H460 lung, in the assay with SR leukemia and in the assay on RXF 393 renal was > 100 µM throughout. The TGI in the assay on SF-268 CNS is > 100 µM. Moreover, the GI50 is 33.3 µM in the assay with RXF 393 renal and 49.6 µM in the assay on SF-268 CNS.

Take `C=CCCC(OCOCCOC)c1cc(C)c(O[Si](C)(C)C(C)(C)C)c(C)c1` (centres undefined): the TGI with CCRF-CEM leukemia was 30.6 µM; with SW-620 colon, 33.2 µM; with A498 renal, 70.6 µM; in the assay on HOP-62 NSCLC, 35.2 µM; in the assay on NCI-H522 lung, 25.4 µM; in the assay on MOLT-4 leukemia, 19.4 µM. For the same compound, the TGI with COLO 205 colon was found to be 32.9 µM; in the assay on LOX IMVI melanoma, 27.6 µM; in the assay with SK-OV-3 ovarian, 55.1 µM; with HL-60(TB) leukemia it was 19.5 µM; in the assay on NCI-H460 lung, 32.1 µM; with RXF 393 renal it was 27.4 µM. Besides, the TGI with SF-268 CNS was 34.1 µM.

For the compound `CN(C)c1ccc(-c2cc(=O)c3cc4c(cc3[nH]2)OCO4)cc1`, the TGI in the assay on CCRF-CEM leukemia, in the assay with SW-620 colon, in the assay on A498 renal, in the assay on HOP-62 NSCLC, in the assay on MOLT-4 leukemia and in the assay on COLO 205 colon was > 100 µM in each case. The TGI in the assay with LOX IMVI melanoma, in the assay with HL-60(TB) leukemia, in the assay on NCI-H460 lung, with SR leukemia, in the assay on RXF 393 renal and in the assay with SF-268 CNS was > 100 µM each time.

Regarding `COc1ccc(C[C@@H]2Cc3cc(OC)c(OC)cc3CN2C)cc1`, the TGI in the assay on CCRF-CEM leukemia, in the assay on SW-620 colon, in the assay with A498 renal, in the assay on HOP-62 NSCLC, in the assay on NCI-H522 lung and with MOLT-4 leukemia was > 100 µM throughout. In addition, the TGI with NCI-H460 lung and with SF-268 CNS was > 100 µM in each case.

Turning to `OC12c3ccccc3C1(N1CCOCC1)CCCCC21OCCCO1` (centres undefined), the TGI in the assay with CCRF-CEM leukemia, with A498 renal, in the assay with HOP-62 NSCLC, with NCI-H522 lung, in the assay with MOLT-4 leukemia and with COLO 205 colon was > 100 µM each time. The TGI in the assay on LOX IMVI melanoma, in the assay with SK-OV-3 ovarian, in the assay on HL-60(TB) leukemia, in the assay with NCI-H460 lung, in the assay on RXF 393 renal and with SF-268 CNS was > 100 µM in each case.

Consider `COC(=O)/C=C1/CCC2[C@@H](C(=O)CC3[C@]2(C)CCC[C@@]3(C)C(=O)OC)C1C` (some centres undefined), for which the TGI with CCRF-CEM leukemia amounted to 17.6 µM; in the assay on SW-620 colon, 22.5 µM; in the assay on A498 renal it was 34.4 µM; with HOP-62 NSCLC, 39.5 µM; in the assay with HOP-92 NSCLC it was 18.1 µM; in the assay on NCI-H522 lung, 19.7 µM. The TGI was determined as 19.1 µM with MOLT-4 leukemia; 18.1 µM in the assay with COLO 205 colon; 51.6 µM with SK-OV-3 ovarian; 7.81 µM with HL-60(TB) leukemia; 51.7 µM in the assay on NCI-H460 lung; 38.6 µM in the assay with SF-268 CNS.

As for `Cc1nc2c(n1CCO)C(=O)c1ccccc1C2=O`, the TGI in the assay with CCRF-CEM leukemia was > 100 µM; in the assay with SW-620 colon, > 100 µM; in the assay on HOP-62 NSCLC it was 74.4 µM; with NCI-H522 lung, 27.6 µM; in the assay on MOLT-4 leukemia, > 100 µM; in the assay on COLO 205 colon, 41.9 µM. Moreover, the TGI in the assay on LOX IMVI melanoma is > 100 µM; in the assay on SK-OV-3 ovarian it was > 100 µM; in the assay on HL-60(TB) leukemia it was 54.2 µM; in the assay with NCI-H460 lung, > 100 µM; with SR leukemia, > 100 µM; with RXF 393 renal, > 100 µM. Further, in the assay on SF-268 CNS, the TGI is > 100 µM.

On to `CCN1CCC(O)(c2ccc(C)cc2)C(C(=O)c2ccc(C)cc2)C1` (centres undefined), for which the TGI in the assay on CCRF-CEM leukemia is 56 µM; in the assay with SW-620 colon it was 31.8 µM; with A498 renal it was > 100 µM; in the assay with HOP-62 NSCLC it was > 100 µM; in the assay on HOP-92 NSCLC, 40.1 µM; in the assay on NCI-H522 lung, 3.44 µM. Further, the TGI is > 71.5 µM in the assay with MOLT-4 leukemia; 48.8 µM in the assay on COLO 205 colon; > 61.2 µM with LOX IMVI melanoma; > 100 µM in the assay on SK-OV-3 ovarian; 47.7 µM in the assay on HL-60(TB) leukemia; > 81.1 µM in the assay on NCI-H460 lung. Also, the TGI in the assay with SR leukemia is 50.9 µM; in the assay with SF-268 CNS it was > 71.8 µM.

As for `O=C(O)/C=C/n1c2ccccc2c(=O)c2ccccc21`, the TGI with CCRF-CEM leukemia, with SW-620 colon, in the assay with A498 renal, in the assay with HOP-62 NSCLC, with NCI-H522 lung and in the assay with MOLT-4 leukemia was > 100 µM each time. Also, the TGI in the assay with COLO 205 colon, with LOX IMVI melanoma, in the assay on HL-60(TB) leukemia, with NCI-H460 lung, with SR leukemia and in the assay with RXF 393 renal was > 100 µM in each case. Moreover, in the assay with SF-268 CNS, the TGI is > 100 µM.

Take `CCCN(CCCCC(NC(C)=O)C(=O)NCc1ccccc1)C(=O)N(C)N=O` (centres undefined): the TGI in the assay with CCRF-CEM leukemia, with SW-620 colon, with A498 renal, in the assay on HOP-62 NSCLC, in the assay with HOP-92 NSCLC and with NCI-H522 lung was > 100 µM each time. Moreover, the TGI in the assay on MOLT-4 leukemia, in the assay with COLO 205 colon, in the assay on LOX IMVI melanoma, in the assay on SK-OV-3 ovarian, with NCI-H460 lung and in the assay with RXF 393 renal was > 100 µM throughout. Besides, the TGI in the assay on SF-268 CNS is > 100 µM.
